# Test results: US8372808B2, “Suppression of glial fibrillary acidic protein” (Wisconsin Alumni Research Foundation, priority 2008, dated 2013)
# Like-named read-outs stand apart in the source and are kept apart here.
# How the values were obtained:
# [1] = system: 2.2 kb human GFAP promoter; test: hGFAP promoter luciferase activity assay in 172.9 cells (primary astrocytes from dual luciferase transgenic mice); assay type: cell-based; details: for effect on GFAP promoter activity (luciferase expression driven by the hGFAP promoter): 172.9 cells, 3 days of treatment; for effect on GFAP promoter activity (luciferase expression driven by the hGFAP promoter) / reductions in luciferase activity: 0-20 μM; for reductions in luciferase activity: quaternary screen, 10 days of exposure; for % GFAP reductions, luciferace expression from hGFAP promoter: tertiary screen, 48 hr exposure, at the MTDcc
# Procedure: Cell-based assays were performed as four different screens using enriched cortical primary astrocyte cultures developed from transgenic mice expressing both firefly and Renilla luciferase reporter genes were generated. Briefly, the'firefly luciferase was placed under the control of a 2.2 kb human GFAP promoter to monitor GFAP transcription, and the Renilla luciferase was placed under the control of a 0.5 kb human GAPDH (glyceraldehyde 3-phosphate dehydrogenase) promoter to monitor transcription of a housekeeping gene for signal normalization. See section B, below for more detail regarding the development of transgenic mouse strains. Cells used in the following examples (e.g., the cortical primary astrocyte cells termed “172.9 cells,” described below) were developed from the transgenic mice described in section B.
# Briefly, the cortices from individual pups were freed of meninges and placed into DMEM (Gibco) without serum, mechanically disassociated into single cells, suspended in medium containing DMEM supplemented with 10% fetal bovine serum (FBS; Hyclone), 100 U/ml penicillin, 100 μg/ml streptomycin (Gibco), seeded into T25 flasks (one brain per flask), and maintained in a humidified 5% CO2 atmosphere at 37° C. […] Medium was changed every 3 days. At 14-16 days in vitro (DIV), the flasks were shaken overnight at 200 rpm to remove oligodendrocytes and microglia. […] The cells were then suspended in DMEM with 10% FBS and plated (“passage 2”) on either 35 mm dishes, […], or 96-well plates (Corning) as needed. Cells were grown for varying days in vitro (DIV) at passage 2 and then used for various experiments. Tissue culture dishes and plates were pre-coated with 100 μg/ml poly-L-lysine for 1 h in a humidified 5% CO2 atmosphere at 37° C., and then allowed to air dry. […] Cell density was measured with the Vi-CELL cell counter (Beckman Coulter) or hemocytometer by the trypan-blue exclusion method. For simplicity, cells are referred to as “172.9 cells.”
# Briefly, 172.9 cells were plated on poly-L coated white 96-well plates at a density of 5000 cells per well, in 100 μl DMEM with 10% FBS. At twenty-four hours, cells were exposed to the different compounds at a final concentration of 10 μM (diluted from a 50 mM stock) prepared in new medium (DMEM with 10% FBS). […] After exposure to compounds, luciferase activity in the primary and secondary screenings was determined by adding 30 μl of Bright-Glo™ reagent (Promega) to the 100 μl of media and cells of each well in the white 96-well plates with the Biomek® FX liquid handler (Beckman Coulter). After incubation for 1 minute at room temperature, signals were measured with the Safire 2 plate reader using Magellan™ software (Tecan). Other specific methods and equipment are known in the art and can be used to measure luciferase expression levels. This assay method is termed the “hGFAP promoter luciferase activity assay.” A reduction in luciferase expression as determined by this assay is termed “hGFAP promoter luciferase reduction.” For some assays that were aimed at confirming results of the initial screens, the same amount of Bright-Glo™ reagent was applied to each well in 96-well plates and signals were detected with the GloRunner™ Microplate Luminometer (Turner Biosystems) using the Dual-Glo® luciferase assay according to the manufacturer's recommendations (E1910, Promega).
# In the secondary screen, cells were plated in a 96-well plate as described above for the primary screen.
# Some compounds were unavailable outside of the library collections, and could not be further tested.
# Each compound and concentration was analyzed in quadruplicate wells.
# (§1) Compounds were tested at eight different concentrations ranging from 0-20 μM. In addition, GFAP protein levels were measured using a sandwich ELISA, which has greater sensitivity and is more accurate than the cell-based ELISA used in the primary screens.
# [2] = system: mGFAP protein; test: GFAP protein levels by ELISA in 172.9 cells treated with betulinic acid derivatives; assay type: cell-based, mouse; details: 7 days of treatment, 0-20 μM
# Procedure: FIG. 9A-D are graphs showing the effects of betulinic acid and betulinic acid derivatives on mGFAP protein levels in 172.9 cells after 7 days of treatment. In the graphs, ester and amide forms of various compounds are paired for comparison.
# 172.9 cells were used to test the effects of betulinic acid and betulinic acid derivatives on GFAP promoter activity and GFAP protein levels. Experiments were performed as previously described. Each of eight compounds (D-altroside (ester); D-altroside (amide); D-xyloside (ester); D-xyloside (amide); aglycon (ester); aglycon (amide); betulinic acid; 3-amino betulinic acid) was tested at a concentration of 0 μM, 0.1 μM, 0.5 μM, 1 μM, 5 μM, 10 μM, 15 μM, and 20 μM. […] Toxicity of the compounds was also evaluated.
# [3] = system: GFAP protein; test: sandwich ELISA for GFAP protein in 172.9 cells, quaternary screen; assay type: cell-based, mouse; details: 10 days of exposure, 0-20 μM
# Procedure: as §1
# The extracts were harvested from each well and the total GFAP content of each well was measured by a sandwich ELISA as described below. Briefly, separate microtiter plates were coated with SMI-26 anti-GFAP mouse monoclonal antibody cocktail (1:1000, Covance, diluted in PBS) overnight at 4° C., rinsed 3 times in PBS, and then blocked with Blotto (5% nonfat milk/PBS) for 2 h at RT. Samples from the astrocyte cell lysate (20 μl per well) were loaded onto the plates and brought up to 100 μl with 0.5% Triton X-100/PBS (a buffer used for subsequent antibody incubations and rinses), and incubated with a rabbit polyclonal anti-GFAP antibody (1:5000, DAKO) overnight at 4° C. The plates were rinsed three times and then incubated with HRP-conjugated goat anti-rabbit IgG (1:30,000, Sigma) for 2 h at RT. After three final rinses, peroxidase activity was detected using the Super Signal Femto maximum Sensitivity Substrate (Pierce) with a GloRunner microplate luminometer (Turner Biosystems). The GFAP content in the samples was determined from a standard curve generated using serial dilutions of purified GFAP (Research Diagnostics).
# [4] = system: mGFAP protein; test: cell-based GFAP protein level assay (cell-based ELISA) in 172.9 cells; design: species or system mouse; details: for % GFAP reductions, mGFAP protein via ELISA: tertiary screen, 48 hr exposure, at the MTDcc
# [5] = system: 172.9 cells; test: cell viability (CellTiter-Glo) / MTDcc in 172.9 cells
# Procedure: Criterion for acceptable viability was >70% survival.
# Cell viability was determined as follows. After exposure to each compound (duplicate wells per compound), 50 μl of CellTitier-Glo Luminescent Cell Viability Assay reagent (G7571, Promega) was added to the 100 μl of media present in each well, and the luminescent signal (reflecting intracellular ATP level) was detected with either a Victor 3-V plate reader (Perkin Elmer) or GloRunner Microplate Luminometer (Turner Biosystems). Cell viability was expressed as a percent of non-treated control cells.
# A dose-response curve was created for each compound (0.1, 0.5, 1, 5, 10, 15, 20 μM) using 48 hr exposures. The MTDcc (“maximum tolerated dose—cell culture”) indicates the highest concentration that retained at least 70% cell viability. Each compound and concentration was analyzed in quadruplicate wells. EGCDG: epigallocatechin 3,5-digallate; NPPB: 5-nitro-2-phenylproplyaminobenzoic acid. As used herein, MTDcc refers to the MTD as determined by this assay under the above conditions.
# [6] = secondary screen, 10 μM, 48 hours
# [7] = tertiary screen, 48 hr exposure, 0.1-20 μM, highest concentration that retained at least 70% cell viability
Molecule,effect on GFAP protein levels [2],"% GFAP reductions, luciferace expression from hGFAP promoter [1] [%]","% GFAP reductions, mGFAP protein via ELISA [4] [%]","MTDcc ([5]; mouse, 48 h) [µM]",also measured
"C=C(C)[C@@H]1CC[C@]2(C(=O)O)CC[C@]3(C)[C@H](CCC4[C@@]5(C)CC[C@H](N)C(C)(C)C5CC[C@]43C)C12 (stereo partly drawn) [3-amino betulinic acid, (3S)-Aminobetulinic acid]",reduced GFAP protein levels more than the ester form,–,–,–,effect on GFAP promoter activity (luciferase expression driven by the hGFAP promoter) [1]: decrease in GFAP promoter activity
"O=C(Oc1cc(O)cc2c1C[C@@H](OC(=O)c1cc(O)c(O)c(O)c1)[C@@H](c1cc(O)c(O)c(O)c1)O2)c1cc(O)c(O)c(O)c1 [EGCDG, epigallocatechin 3,5-digallate]",–,57,4.5,–,"reductions in GFAP protein levels [3]: consistent reductions; reductions in luciferase activity [1]: consistent reductions; suppression in the promoter assay [1, 6]: significant suppression; suppression in the protein assay [4, 6]: significant suppression; MTDcc [5]: 17.5 µM; cell viability [5]: acceptable cell viability"
"C=C(C)[C@@H]1CC[C@]2(C(=O)O)CC[C@]3(C)[C@H](CCC4[C@@]5(C)CC[C@H](OC(=O)CN(OC)[C@@H]6OC[C@@H](O)C(O)C6O)C(C)(C)C5CC[C@]43C)C12 (stereo partly drawn) [D-xyloside (ester), (3S)—O—(N-Methoxy-N-β-D-xylosylglycyl)betulinic acid]",reduced GFAP protein levels more than the amide form,–,–,–,effect on GFAP promoter activity (luciferase expression driven by the hGFAP promoter) [1]: more dramatic decrease in GFAP promoter activity than the amide form
CN(C)CCC=C1c2ccccc2CCc2ccccc21 [amitriptyline],–,63,12.2,>20,reductions in GFAP protein levels [3]: consistent reductions; reductions in luciferase activity [1]: consistent reductions; cell viability [5]: acceptable cell viability
"C=C(C)[C@@H]1CC[C@]2(C(=O)O)CC[C@]3(C)[C@H](CCC4[C@@]5(C)CC[C@H](OC(=O)CNOC)C(C)(C)C5CC[C@]43C)C12 (stereo partly drawn) [aglycon (ester), (3S)—O—(N-Methoxyglycyl)betulinic acid]",minimal effect,–,–,–,effect on GFAP promoter activity (luciferase expression driven by the hGFAP promoter) [1]: decreased luciferase expression
"C=C(C)[C@@H]1CC[C@]2(C(=O)O)CC[C@]3(C)[C@H](CCC4[C@@]5(C)CC[C@H](NC(=O)CNOC)C(C)(C)C5CC[C@]43C)C12 (stereo partly drawn) [aglycon (amide), (3S)—N—(N′-Methoxyglycyl)aminobetulinic acid]",reduced GFAP protein levels more than the ester form,–,–,–,–
"C=C(C)[C@@H]1CC[C@]2(C(=O)O)CC[C@]3(C)[C@H](CCC4[C@@]5(C)CC[C@H](OC(=O)CN(OC)[C@@H]6OC(CO)[C@@H](O)C(O)C6O)C(C)(C)C5CC[C@]43C)C12 (stereo partly drawn) [D-altroside (ester), (3S)—O—(N-Methoxy-N-β-D-altrosylglycyl)betulinic acid]",reduced GFAP protein levels more than the amide form,–,–,–,effect on GFAP promoter activity (luciferase expression driven by the hGFAP promoter) [1]: more dramatic decrease in GFAP promoter activity than the amide form
C=C(C)[C@@H]1CC[C@]2(C(=O)O)CC[C@]3(C)[C@H](CC[C@@H]4[C@@]5(C)CC[C@H](O)C(C)(C)[C@@H]5CC[C@]43C)[C@@H]12 [betulinic acid],–,13,6.3,>20,–
CCOP(=S)(OCC)Oc1ccc2c(C)c(Cl)c(=O)oc2c1 [coumophos],–,10,0.4,–,MTDcc [5]: >20 µM
NC[C@H]1O[C@H](O[C@H]2[C@H](O)[C@@H](O[C@H]3O[C@H](CO)[C@@H](O)[C@H](N)[C@H]3O)[C@H](N)C[C@@H]2N)[C@H](O)[C@@H](O)[C@@H]1O [kanamycin],–,22,11.3,>20,–
CSc1ccc2c(c1)N(CCC1CCCCN1C)c1ccccc1S2 (centres unmarked) [thioridazine],–,37,17.7,5,–
methylnorlichexanthone,–,10,0.6,–,"MTDcc [5, 7]: >20 µM"
CN(CC(=O)O)C(=N)NP(=O)(O)O [phosphocreatine],–,13,3.8,–,"MTDcc [5, 7]: >20 µM"
CN(C)CC/C=C1/c2ccccc2Sc2ccc(Cl)cc21 [chlorprothixene],–,60,−3.6,17.5,–
